Reference: patent US6511959B1, “Use of calcium-activated neutral protease (CANP) inhibitors in pharmaceutical preparations” (Norsk Hydro AS, priority 1991, dated 2003)
Square brackets hold non-standard residues; d marks the D form. Peptide text beside a SMILES is read from it. Nle = CCCC[C@H](N)C(=O)O

Columns and labels:
[1] = system: human NHIK 3025 cervix carcinoma cells; experiment: Cell survival (colony formation) of cervix carcinoma cells; assay type: cell-based; conditions: 24 hours treatment, colonies scored after 12 to 14 days
Excerpt: Human cells of the established line […], originating from a cervical carcinoma in situ (Nordbye, K. and Oftebro, R., 1969, Exp. Cell Res., 58:458 and Oftebro, R. and Nordbye, K., 1969, Exp. Cell Res., 58:459) were cultivated in medium Eagles minimum essential medium (MEM) supplemented with 10% fetal bovine serum and antibiotics. Cells were routinely grown as monolayers in tissue culture flasks. The cells were kept in continuous exponential growth by frequent reculturing every second or third day. During reculturing, as well as during experiments, the cells were kept in humidified CO2 incubators at 37° C.
In the experiments represented in this example, the proteinaceous CANP inhibitor was additionally purified by gel filtration chromatography.
Cell survival studies were performed by adding inhibitors to exponentially growing, asynchronous cells 2 hours after seeding the cells into plastic Petri dishes at known cell densities. The inhibitor treatment period was 24 hours after which the dishes were rinsed with warm (37° C.) Hanks' balanced salt solution and fresh medium without inhibitor, was added. After 12 to 14 days of incubation (with a medium shift on day 7) colonies of cells were fixed in ethanol and stained with methylene blue. Only colonies containing more than 40 cells were scored as survivors. The percent cell survival is calculated relative to untreated, control dishes.

M-cells = experiment: Cytological changes of cell cultures in continuous presence of the inhibitors; assay type: cell-based, human; conditions: continuous presence 72 and 120 h, 2 mg/ml trypsin-chymotrypsin inhibitor, 1 mg/ml aprotinin, leupeptin or E64
Procedure: (§1) a) Cytological Changes of Cell Cultures in Continuous Presence of the Inhibitors
(§2) The following samples were made up in RPMI-1640 complete medium:
(§3) 2. 2 mg/ml trypsin-chymotrypsin inhibitor
(§4) 6. all five inhibitors at the above mentioned concentrations
(§5) 7. RPMI-1640 medium with no inhibitor addition to serve as a control medium.
(§6) Ten glass Petri dishes (5 cm diameter) were seeded each with 1×10^6 M-cells and another ten dishes were seeded each with 1×10^6 P-cells. Duplicate cell cultures received each type of complete medium containing the inhibitors and control cultures received only complete medium. The cell cultures were incubated at 37° C. in a humidified CO2-incubator for 120 hours. The culture medium was changed with fresh medium containing the same inhibitors at 24 and 72 hours after start of the experiment. Half of the cell cultures were fixed in 50% ethanol 72 hours and the other half 120 hours after initiation of the experiment. All cell cultures were stained according to the Papanicolaou method.

P-cells = experiment: as above; assay type: cell-based, human; conditions: continuous presence 72 and 120 h, 2 mg/ml trypsin-chymotrypsin inhibitor, 1 mg/ml aprotinin, leupeptin or E64
Procedure: as §1, §2, §3, §4, §5, §6

Walker rat tumors = experiment: Calpain inhibitor I and II on growth of Walker rat tumors in vivo; set-up: species or system Wistar rats; conditions: liposomal, 27 mg/100 g rat daily i.p.
Procedure: Male Wistar rats were injected with 10×10^6 Walker tumor cells per rat at the inguinal region. Treatment was started when measurable tumors appeared. Each treatment group consisted of 5 rats. […] Rats were treated with 2 ml liposomal solution of inhibitors at a concentration of 13.5 mg/ml, equivalent to 27 mg/100 g rat, daily by intraperitoneal injection. Rats in the control group received daily injections of saline-filled liposomes. Tumor volume was determined by measuring two diameters with calipers. The data is presented in FIG. 3 in which each data point represents the mean±S.E. tumor volume measurements for 5 rats.

Compound | cytotoxic effect (cell survival, FIG. 1) [1] | effect on growth or cytology compared to control cell cultures (M-cells) | effect on growth or cytology compared to control cell cultures (P-cells) | tumor regression (Walker rat tumors; 5 doses) | anticancer effect (tumor volume, FIG. 3) (Walker rat tumors)
CC(C)C[C@H](NC(=O)[C@H]1O[C@@H]1C(=O)O)C(=O)NCCCCN=C(N)N (relative stereo) [E64, L-trans-3-carboxy-oxiran-2-carbonyl-L-leucylagmatine] | little cytotoxic effect | did not affect the growth or cytology | did not affect the growth or cytology |  | 
CCCC[C@@H](C=O)NC(=O)[C@H](CC(C)C)NC(=O)[C@H](CC(C)C)NC(C)=O [calpain inhibitor I, N-Acetyl-Leu-Leu-Norleucinal] (Ac-Leu-Leu-[Nle]-aldehyde) |  |  |  | approximately 92% | 
CSCC[C@@H](C=O)NC(=O)[C@H](CC(C)C)NC(=O)[C@H](CC(C)C)NC(C)=O [calpain inhibitor II, N-Acetyl-Leu-Leu-Methioninal] (Ac-Leu-Leu-Met-aldehyde) | slightly greater cytotoxicity than aprotinin |  |  |  | anticancer effect from the fourth dose
CC(=O)N[C@@H](CC(C)C)C(=O)N[C@@H](CC(C)C)C(=O)N[C@H](C=O)CCCNC(=N)N [leupeptin, N-acetyl-L-leucyl-L-leucyl-L-arginal] | little cytotoxic effect | did not affect the growth or cytology | did not affect the growth or cytology |  | 
aprotinin |  | did not affect the growth or cytology | did not affect the growth or cytology |  | 
